Series [1] relates to Puccinia recondita f. sp. tritici. As to the kind of experiment: Fungicidal activity against Puccinia recondita f. sp. tritici / wheat / leaf disc preventative (brown rust). The settings on record: foliar, 200 ppm in the applied formulation, wheat leaf segments cv. Kanzler, inoculated 1 day after application, assessed 7 to 9 days after application, compared to untreated, read-out: disease control. It is filed as in vivo. As for the experimental part: Leaf disks or leaf segments of various plant species are cut from plants grown in a greenhouse. The cut leaf disks or segments are placed in multiwell plates (24-well format) onto water agar. The leaf disks are sprayed with a test solution before (preventative) or after (curative) inoculation. Compounds to be tested are prepared as DMSO solutions (max. 10 mg/mL) which are diluted to the appropriate concentration with 0.025% Tween20 just before spraying. The inoculated leaf disks or segments are incubated under defined conditions (temperature, relative humidity, light, etc.) according to the respective test system. A single evaluation of disease level is carried out 3 to 14 days after inoculation, depending on the pathosystem. Percent disease control relative to the untreated check leaf disks or segments is then calculated. Wheat leaf segments cv. Kanzler were placed on agar in multiwell plates (24-well format) and sprayed with the formulated test compound diluted in water. The leaf disks were inoculated with a spore suspension of the fungus 1 day after application. The inoculated leaf segments were incubated at 19° C. and 75% relative humidity (rh) under a light regime of 12 hours light/12 hours darkness in a climate cabinet and the activity of a compound was assessed as percent disease control compared to untreated when an appropriate level of disease damage appears in untreated check leaf segments (7 to 9 days after application). The following compounds at 200 ppm in the applied formulation give at least 80% disease control in this test when compared to untreated control leaf disks under the same conditions, which show extensive disease development.

The test system is the same in series [2]. Description: Fungicidal activity against Puccinia recondita f. sp. tritici / wheat / leaf disc curative (brown rust). Format: in vivo. The conditions noted are these: foliar, 200 ppm in the applied formulation, wheat leaf segments cv. Kanzler, applied 1 day after inoculation, assessed 6 to 8 days after application, compared to untreated, read-out: disease control. As for the experimental part:
Leaf disks or leaf segments of various plant species are cut from plants grown in a greenhouse. The cut leaf disks or segments are placed in multiwell plates (24-well format) onto water agar. The leaf disks are sprayed with a test solution before (preventative) or after (curative) inoculation. Compounds to be tested are prepared as DMSO solutions (max. 10 mg/mL) which are diluted to the appropriate concentration with 0.025% Tween20 just before spraying. The inoculated leaf disks or segments are incubated under defined conditions (temperature, relative humidity, light, etc.) according to the respective test system. A single evaluation of disease level is carried out 3 to 14 days after inoculation, depending on the pathosystem. Percent disease control relative to the untreated check leaf disks or segments is then calculated. Wheat leaf segments cv. Kanzler are placed on agar in multiwell plates (24-well format). The leaf segments are then inoculated with a spore suspension of the fungus. Plates were stored in darkness at 19° C. and 75% relative humidity. The formulated test compound diluted in water was applied 1 day after inoculation. The leaf segments were incubated at 19° C. and 75% relative humidity under a light regime of 12 hours light/12 hours darkness in a climate cabinet and the activity of a compound was assessed as percent disease control compared to untreated when an appropriate level of disease damage appears in untreated check leaf segments (6 to 8 days after application). The following compounds at 200 ppm in the applied formulation give at least 80% disease control in this test when compared to untreated control leaf disks under the same conditions, which show extensive disease development.

The test system of series [3] is Phakopsora pachyrhizi. As to the kind of experiment: Fungicidal activity against Phakopsora pachyrhizi / soybean / leaf disc preventative (Asian soybean rust). It is filed as in vivo. The conditions noted are these: foliar, 200 ppm in the applied formulation, soybean leaf disks, inoculated one day after application, assessed 12 to 14 days after application, compared to untreated, read-out: disease control. As for the experimental part: Leaf disks or leaf segments of various plant species are cut from plants grown in a greenhouse. The cut leaf disks or segments are placed in multiwell plates (24-well format) onto water agar. The leaf disks are sprayed with a test solution before (preventative) or after (curative) inoculation. Compounds to be tested are prepared as DMSO solutions (max. 10 mg/mL) which are diluted to the appropriate concentration with 0.025% Tween20 just before spraying. The inoculated leaf disks or segments are incubated under defined conditions (temperature, relative humidity, light, etc.) according to the respective test system. A single evaluation of disease level is carried out 3 to 14 days after inoculation, depending on the pathosystem. Percent disease control relative to the untreated check leaf disks or segments is then calculated. Soybean leaf disks are placed on water agar in multiwell plates (24-well format) and sprayed with the formulated test compound diluted in water. One day after application leaf discs are inoculated by spraying a spore suspension on the lower leaf surface. After an incubation period in a climate cabinet of 24-36 hours in darkness at 20° C. and 75% rh leaf disc are kept at 20° C. with 12 hours light/day and 75% rh. The activity of a compound is assessed as percent disease control compared to untreated when an appropriate level of disease damage appears in untreated check leaf disks (12 to 14 days after application). The following compounds at 200 ppm in the applied formulation give at least 80% disease control in this test when compared to untreated control leaf disks under the same conditions, which show extensive disease development.

Series [4] deals with Glomerella lagenarium (Colletotrichum lagenarium). As to the kind of experiment: Fungicidal activity against Glomerella lagenarium (Colletotrichum lagenarium) liquid culture / cucumber / preventative (anthracnose). Format: cell-based. The conditions noted are these: Colletotrichum orbiculare; 20 ppm in the applied formulation; liquid culture in PDB, 24° C.; 3 to 4 days after application; compared to untreated control; read-out: disease control (inhibition of growth measured photometrically). As for the experimental part: Mycelia fragments or conidia suspensions of a fungus prepared either freshly from liquid cultures of the fungus or from cryogenic storage, are directly mixed into nutrient broth. DMSO solutions of the test compound (max. 10 mg/mL) are diluted with 0.025% Tween20 by a factor of 50 and 10 μL of this solution is pipetted into a microtiter plate (96-well format). The nutrient broth containing the fungal spores/mycelia fragments is then added to give an end concentration of the tested compound. The test plates are incubated in the dark at 24° C. and 96% relative humidity (rh). The inhibition of fungal growth is determined photometrically after 2 to 7 days, depending on the pathosystem, and percent antifungal activity relative to the untreated check is calculated. Conidia of the fungus from cryogenic storage are directly mixed into nutrient broth (PDB—potato dextrose broth). After placing a (DMSO) solution of test compound into a microtiter plate (96-well format), the nutrient broth containing the fungal spores is added. The test plates are incubated at 24° C. and the inhibition of growth is measured photometrically 3 to 4 days after application. The following compounds at 20 ppm in the applied formulation give at least 80% disease control in this test when compared to untreated control under the same conditions, which show extensive disease development.

Some results are limits rather than exact numbers.

A word on the melting point: it is the temperature, or range, at which the solid turns liquid. One may read the inhibition as how much of the control response was suppressed. `CNC(=S)c1ccnn1Cc1ccc(-c2noc(C(F)(F)F)n2)cc1` [Compound 1.1, N-methyl-2-[[4-[5-(trifluoromethyl)-1,2,4-oxadiazol-3-yl]phenyl]methyl] pyrazole-3-carbothioamide] gave a melting point of 159 to 164 °C. The pest or weed control at 200 ppm in series [1] was not below 80%. For the same molecule, the pest or weed control at 200 ppm in series [2] is not below 80%. In series [3], the pest or weed control at 200 ppm was not below 80%. In addition, the inhibition at 20 ppm in series [4] is not below 80%.
For `CN(C)C(=S)c1ncn(Cc2ccc(-c3noc(C(F)(F)F)n3)cc2)n1` [Compound 1.2, N,N-dimethyl-1-[[4-[5-(trifluoromethyl)-1,2,4-oxadiazol-3-yl]phenyl]methyl]-1,2,4-triazole-3-carbothioamide], the pest or weed control at 200 ppm in series [1], in series [2] and in series [3] was not below 80% throughout. Further, the inhibition at 20 ppm in series [4] was not below 80%.
Turning to `FC(F)(F)c1nc(-c2ccc(Cn3ccc(C(=S)NC4CC4)n3)cc2)no1` [Compound 1.3, N-cyclopropyl-1-[[4-[5-(trifluoromethyl)-1,2,4-oxadiazol-3-yl]phenyl]methyl] pyrazole-3-carbothioamide], the pest or weed control at 200 ppm in series [1], in series [2] and in series [3] was not below 80% each time. Moreover, the inhibition at 20 ppm in series [4] is not below 80%.
Regarding `CNC(=S)c1ncnn1Cc1ccc(-c2noc(C(F)(F)F)n2)cc1` [Compound 1.4, N-methyl-2-[[4-[5-(trifluoromethyl)-1,2,4-oxadiazol-3-yl]phenyl]methyl]-1,2,4-triazole-3-carbothioamide], the pest or weed control at 200 ppm in series [1], in series [2] and in series [3] was not below 80% each time. Also, in series [4], the inhibition at 20 ppm was not below 80%.
On to `CNC(=S)c1ncnn1Cc1ccc(-c2noc(C(F)(F)F)n2)s1` [Compound 1.5, N-methyl-2-[[5-[5-(trifluoromethyl)-1,2,4-oxadiazol-3-yl]-2-thienyl]methyl]-1,2,4-triazole-3-carbothioamide], for which the melting point lay within 86 to 95 °C. Besides, in series [1], the pest or weed control at 200 ppm is not below 80%. In series [2], the pest or weed control at 200 ppm was not below 80%. The pest or weed control at 200 ppm in series [3] is not below 80%. Also, in series [4], the inhibition at 20 ppm was not below 80%.
Take `CNC(=S)c1ccn(Cc2ccc(-c3noc(C(F)(F)F)n3)s2)n1` [Compound 1.6, N-methyl-1-[[5-[5-(trifluoromethyl)-1,2,4-oxadiazol-3-yl]-2-thienyl]methyl]pyrazole-3-carbothioamide]: the melting point lay within 118 to 122 °C. In addition, the pest or weed control at 200 ppm in series [1] is not below 80%. In series [2], the pest or weed control at 200 ppm was not below 80%. Also, the pest or weed control at 200 ppm in series [3] was not below 80%. Also, the inhibition at 20 ppm in series [4] was not below 80%.
`CCONC(=S)c1ccn(Cc2ccc(-c3noc(C(F)(F)F)n3)s2)n1` [Compound 1.7, N-ethoxy-1-[[5-[5-(trifluoromethyl)-1,2,4-oxadiazol-3-yl]-2-thienyl]methyl]pyrazole-3-carbothioamide]: the pest or weed control at 200 ppm in series [1], in series [2] and in series [3] was not below 80% throughout. In series [4], the inhibition at 20 ppm is not below 80%.
Molecule `CN(C)C(=S)c1ncn(Cc2ccc(-c3noc(C(F)(F)F)n3)s2)n1` [Compound 1.8, N,N-dimethyl-1-[[5-[5-(trifluoromethyl)-1,2,4-oxadiazol-3-yl]-2-thienyl]methyl]-1,2,4-triazole-3-carbothioamide] returned a melting point of 112 to 118 °C. Further, the pest or weed control at 200 ppm in series [1] is not below 80%. The pest or weed control at 200 ppm in series [2] is not below 80%. Also, the pest or weed control at 200 ppm in series [3] was not below 80%. For the same molecule, the inhibition at 20 ppm in series [4] is not below 80%.
On to `CNC(=S)c1cnn(C(C)c2ccc(-c3noc(C(F)(F)F)n3)s2)c1` (centres unmarked) [Compound 1.9, N-methyl-1-[1-[5-[5-(trifluoromethyl)-1,2,4-oxadiazol-3-yl]-2-thienyl]ethyl]pyrazole-4-carbothioamide], for which the pest or weed control at 200 ppm in series [1], in series [2] and in series [3] was not below 80% each time. The inhibition at 20 ppm in series [4] is not below 80%.
In the case of `CC(c1ccc(-c2noc(C(F)(F)F)n2)s1)n1cc(C(=S)N2CCC2)cn1` (centres unmarked) [Compound 1.10, azetidin-1-yl-[1-[1-[5-[5-(trifluoromethyl)-1,2,4-oxadiazol-3-yl]-2-thienyl]ethyl]pyrazol-4-yl]methanethione], the melting point was 75 to 83 °C. Further, the pest or weed control at 200 ppm in series [1] is not below 80%. Moreover, the pest or weed control at 200 ppm in series [2] was not below 80%. Besides, the pest or weed control at 200 ppm in series [3] was not below 80%. For the same molecule, the inhibition at 20 ppm in series [4] is not below 80%.
Turning to `FC(F)(F)c1nc(-c2ccc(Cn3ccnc3C(=S)NC3CC3)s2)no1` [Compound 1.11, N-cyclopropyl-1-[[5-[5-(trifluoromethyl)-1,2,4-oxadiazol-3-yl]-2-thienyl]methyl] imidazole-2-carbothioamide], the pest or weed control at 200 ppm in series [1], in series [2] and in series [3] was not below 80% each time. The inhibition at 20 ppm in series [4] was not below 80%.
As for `CCCNC(=S)c1nccn1Cc1ccc(-c2noc(C(F)(F)F)n2)s1` [Compound 1.15, N-propyl-1-[[5-[5-(trifluoromethyl)-1,2,4-oxadiazol-3-yl]-2-thienyl]methyl] imidazole-2-carbothioamide], the pest or weed control at 200 ppm in series [1], in series [2] and in series [3] was not below 80% each time. For the same molecule, the inhibition at 20 ppm in series [4] is not below 80%.
